# US8664220B2, “Polycyclic compounds as lysophosphatidic acid receptor antagonists” (Amira Pharmaceuticals, Inc., priority 2009, dated 2014)
# Tests used:
# [1] = system: bleomycin-induced lung fibrosis; assay: Bleomycin-induced lung fibrosis model in mice; type: in vivo, mouse; details: acute setting (3 day)
# Description: Bleomycin-induced Lung Fibrosis Model in Mice Female CD-1 mice (Harlan, 25-30 g) are housed 4 per cage, given free access to food and water and allowed to acclimate for at least 7 days prior to test initiation. After the habituation phase, mice are lightly anesthetized with isoflurane (5% in 100% O2) and administered with bleomycin sulfate (0.01-5 U/kg, Henry Schein) via intratracheal instillation (Cuzzocrea S et al. Am J Physiol Lung Cell Mol Physiol. 2007 May; 292(5):[…]-104. Epub 2007 Jan. 12.). Mice are returned to their cages and monitored daily for the duration of the experiment. Test compound or vehicle is delivered po, ip or sc daily. The route and frequency of dosing is based on previously determined pharmacokinetic properties. […] BALF is analyzed for concentrations of inflammatory, pro-fibrotic and tissue injury biomarkers including transforming growth factor β1, hyaluronic acid, tissue inhibitor of metalloproteinase-1, matrix matelloproteinase-7, connective tissue growth factor and lactate dehydrogenase activity, using commercially available ELISA. […] Total cell counts are then obtained using a Hemavet hematology system (Drew Scientific, Wayne, Pa.) and differential cells counts are determined using Shandon cytospin (Thermo Scientific, Waltham, Mass.). […] The data are plotted using Graphpad prism and statistical differences between groups determined.
# [2] = target: T1, human LPA1 (Homo sapiens, UniProt Q92633); assay: LPA1 calcium flux assay; type: cell-based; details: human LPA1 expressing CHO cells, stimulated with 10 nM LPA; read-out: HLPA1 Ca Flux IC50
# T1 construct: the full-length cDNA for human LPA1 was obtained by PCR of the reverse transcription reaction; expressed in transfected cells
# T1 sequence (Q92633 whole entry): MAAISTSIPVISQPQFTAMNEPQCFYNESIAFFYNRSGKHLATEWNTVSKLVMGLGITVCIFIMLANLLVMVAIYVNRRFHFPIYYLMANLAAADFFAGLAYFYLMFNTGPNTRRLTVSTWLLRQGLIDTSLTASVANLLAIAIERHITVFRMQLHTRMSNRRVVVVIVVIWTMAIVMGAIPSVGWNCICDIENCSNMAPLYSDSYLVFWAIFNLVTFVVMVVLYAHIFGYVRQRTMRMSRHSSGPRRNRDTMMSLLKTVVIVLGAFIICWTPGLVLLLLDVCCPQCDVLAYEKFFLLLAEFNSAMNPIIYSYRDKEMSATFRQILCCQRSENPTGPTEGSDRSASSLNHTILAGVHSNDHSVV
# Outline: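 CHO cells stably expressing human LPA1, serum-starved overnight and loaded with Calcium 4 dye in HBSS/20 mM Hepes/0.3% fatty-acid-free HSA, 1 h at 37 °C. Compounds pre-incubated 30 min at room temperature, then 10 nM LPA added; intracellular Ca2+ flux measured and IC50 from titration curves.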
# [3] = system: A2058 human melanoma cells; assay: LPA1 chemotaxis assay; type: cell-based; details: LPA 100 nM, read-out: IC50, inhibition of LPA-driven chemotaxis
# Procedure: Chemotaxis of the A2058 human melanoma cells was measured using the Neuroprobe ChemoTx® System plates (8 μm pore size, 5.7 mm diameter sites). The filter sites were coated with 0.001% fibronectin (Sigma) in 20 mM Hepes, pH 7.4 and allowed to dry. A2058 cells were serum-starved for 24 hours, then harvested with Cell Stripper and resuspended in DMEM containing 0.1% fatty-acid-free bovine serum albumin (BSA) to a concentration of 1×10^6/ml. Cells were mixed with an equal volume of test compound (2×) in DMEM containing 0.1% fatty-acid-free BSA and incubated at 37° C. for 15 minutes. LPA (100 nM in DMEM containing 0.1% fatty-acid-free BSA) or vehicle was added to each well of the lower chamber and 50 μl of the cell suspension/test compound mix was applied to the upper portion of the ChemoTx plate. Plates were incubated at 37° C. for three hours and then the cells removed from the upper portion by rinsing with PBS and scraping. The filter was dried then stained with HEMA 3 Staining System (Fisher Scientific). The absorbance of the filter was read at 590 nm and IC50s were determined using Symyx Assay Explorer.
# [4] = system: nerve-injured mice; details: pretreatment; cited from earlier work
# [5] = system: pancreatic cancer cell lines; details: cited from earlier work
# [6] = system: human foetal lung fibroblasts; details: cited from earlier work
# [7] = system: renal fibrosis, unilateral ureteral obstruction (UUO); details: UUO mice; cited from earlier work
# [8] = system: mouse epithelial renal cell line, MCT; details: co-treatment with LPA, MCT cells; cited from earlier work
SMILES,IC50 [2] [nM],also measured
"Cc1noc(-c2ccc(-c3ccc(C4(C(=O)O)CC4)cc3)cc2)c1C(O)c1cn(Cc2ccccc2)nn1 (single isomer, unassigned) [Compound 1-41, 1-(4′-{4-[(1-Benzyl-1H-[1,2,3]triazol-4-yl)-hydroxy-methyl]-3-methyl-isoxazol-5-yl}-biphenyl-4-yl)-cyclopropanecarboxylic acid]",< 300,collagen concentration in broncheoalveolar lavage fluid (BALF) [1]: significantly reduced; total protein concentration in broncheoalveolar lavage fluid (BALF) [1]: significantly reduced; IC50 [3]: < 100 nM
"Cc1noc(-c2ccc(-c3ccc(C4(C(=O)O)CC4)cc3)cc2)c1C(O)c1cn(Cc2ccccc2)nn1 (centres unmarked) [Compound 1-25, 1-(4′-{4-[(1-Benzyl-1H-[1,2,3]triazol-4-yl)-hydroxy-methyl]-3-methyl-isoxazol-5-yl}-biphenyl-4-yl)-cyclopropanecarboxylic acid]",< 300,IC50 [3]: < 100 nM
"Cc1noc(-c2ccc(-c3ccc(C4(C(=O)O)CC4)cc3)cc2)c1Nc1cncc(-c2cccc(F)c2Cl)c1 [Compound 1-155, 1-(4′-{4-[5-(2-Chloro-3-fluoro-phenyl)-pyridin-3-ylamino]-3-methyl-isoxazol-5-yl}-biphenyl-4-yl)-cyclopropanecarboxylic acid]",< 300,
"Cc1noc(-c2ccc(-c3ccc(C4(C(=O)O)CC4)cc3)cc2)c1Nc1cccc(-c2cccc(F)c2C)n1 [Compound 1-156, 1-(4′-{4-[6-(3-Fluoro-2-methyl-phenyl)-pyridin-2-ylamino]-3-methyl-isoxazol-5-yl}-biphenyl-4-yl)-cyclopropanecarboxylic acid]",< 300,
"Cc1noc(-c2ccc(-c3ccc(C4(C(=O)O)CC4)cc3)cc2)c1Nc1cccc(-c2cccc(C(F)(F)F)c2Cl)n1 [Compound 1-157, 1-(4′-{4-[6-(2-Chloro-3-trifluoromethyl-phenyl)-pyridin-2-ylamino]-3-methyl-isoxazol-5-yl}-biphenyl-4-yl)-cyclopropanecarboxylic acid]",< 300,
"Cc1noc(-c2ccc(-c3ccc(C4(C(=O)O)CC4)cc3)cc2)c1Nc1cccc(-c2cccc(Cl)c2Cl)n1 [Compound 1-158, 1-(4′-{4-[6-(2,3-Dichloro-phenyl)-pyridin-2-ylamino]-3-methyl-isoxazol-5-yl}-biphenyl-4-yl)-cyclopropanecarboxylic acid]",< 300,
"COc1c(F)cccc1-c1cccc(Nc2c(C)noc2-c2ccc(-c3ccc(C4(C(=O)O)CC4)cc3)cc2)n1 [Compound 1-159, 1-(4′-{4-[6-(3-Fluoro-2-methoxy-phenyl)-pyridin-2-ylamino]-3-methyl-isoxazol-5-yl}-biphenyl-4-yl)-cyclopropanecarboxylic acid]",< 300,
"Cc1noc(-c2ccc(-c3ccc(C4(C(=O)O)CC4)cc3)cc2)c1Nc1cncc(-c2cccc(Cl)c2)c1 [Compound 1-160, 1-(4′-{4-[5-(3-Chloro-phenyl)-pyridin-3-ylamino]-3-methyl-isoxazol-5-yl}-biphenyl-4-yl)-cyclopropanecarboxylic acid]",< 300,
"Cc1noc(-c2ccc(-c3ccc(C4(C(=O)O)CC4)cc3)cc2)c1Nc1cncc(-c2cc(F)ccc2F)c1 [Compound 1-161, 1-(4′-{4-[5-(2,5-Difluoro-phenyl)-pyridin-3-ylamino]-3-methyl-isoxazol-5-yl}-biphenyl-4-yl)-cyclopropanecarboxylic acid]",< 300,
"Cc1noc(-c2ccc(-c3ccc(C4(C(=O)O)CC4)cc3)cc2)c1Nc1cccc(-c2cccc(Cl)c2)n1 [Compound 1-162, 1-(4′-{4-[6-(3-Chloro-phenyl)-pyridin-2-ylamino]-3-methyl-isoxazol-5-yl}-biphenyl-4-yl)-cyclopropanecarboxylic acid]",< 300,
"CCc1noc(-c2ccc(-c3ccc(C4(C(=O)O)CC4)cc3)cc2)c1Nc1cccc(-c2ccccc2)n1 [Compound 2-1, 1-{4′-[3-Ethyl-4-(6-phenyl-pyridin-2-ylamino)-isoxazol-5-yl]-biphenyl-4-yl}-cyclopropanecarboxylic acid]",< 300,
"CCc1noc(-c2ccc(-c3ccc(C4(C(=O)O)CC4)cc3)cc2)c1Nc1nnc(-c2ccccc2)o1 [Compound 2-2, 1-{4′-[3-Ethyl-4-(5-phenyl-[1,3,4]oxadiazol-2-ylamino)-isoxazol-5-yl]-biphenyl-4-yl}-cyclopropanecarboxylic acid]",< 300,
"Cc1noc(-c2ccc(-c3ccc(C4(C(=O)NS(C)(=O)=O)CC4)cc3)cc2)c1C(O)c1cn(Cc2cccc(C(F)(F)F)c2)nn1 (centres unmarked) [Compound 3-3, N-{1-[4′-(4-{Hydroxy-[1-(3-trifluoromethyl-benzyl)-1H-[1,2,3]triazol-4-yl]-methyl}-3-methyl-isoxazol-5-yl)-biphenyl-4-yl]-cyclopropanecarbonyl}-methanesulfonamide]",1000 to 50000,
"Cc1noc(-c2ccc(-c3ccc(C4(C(=O)NS(C)(=O)=O)CC4)cc3)cc2)c1Nc1nnc(-c2ccccc2)o1 [Compound 3-4, N-(1-{4′-[3-Methyl-4-(5-phenyl-[1,3,4]oxadiazol-2-ylamino)-isoxazol-5-yl]-biphenyl-4-yl}-cyclopropanecarbonyl)-methanesulfonamide]",< 300,
"Cc1noc(-c2ccc(-c3ccc(C4(C(=O)NS(C)(=O)=O)CC4)cc3)cc2)c1Nc1cccc(Cc2ccccc2)n1 [Compound 3-5, N-(1-{4′-[4-(6-Benzyl-pyridin-2-ylamino)-3-methyl-isoxazol-5-yl]-biphenyl-4-yl}-cyclopropanecarbonyl)-methanesulfonamide]",< 300,
"Cc1noc(-c2ccc(-c3ccc(C4(C(=O)NS(C)(=O)=O)CC4)cc3)cc2)c1Nc1cccc(-c2ccccc2)n1 [Compound 3-6, N-(1-{4′-[3-Methyl-4-(6-phenyl-pyridin-2-ylamino)-isoxazol-5-yl]-biphenyl-4-yl}-cyclopropanecarbonyl)-methanesulfonamide]",< 300,
C[C@@H](N)[C@H]1CC[C@H](C(=O)Nc2ccncc2)CC1 [Compound Y-27632],,allodynia and hyperalgesia [4]: completely abolished
Cc1noc(-c2ccc(CSCCC(=O)O)cc2)c1NC(=O)OC(C)c1ccccc1Cl (centres unmarked) [Ki16425],,LPA-induced and ascites-induced invasion activity ([5]; highly peritoneal metastatic pancreatic cancer cell line): blocked; in vitro migration in response to LPA and peritoneal fluid (ascites) from pancreatic cancer patients ([5]; pancreatic cancer cell lines): effectively blocked; chemotaxis of human foetal lung fibroblasts induced by BAL from IPF patients [6]: blocked; development of renal fibrosis [7]: closely resembled the LPA1 (−/−) mice; LPA-induced increase in expression of the profibrotic cytokine CTGF [8]: almost completely suppressed
